# Source: patent publication US6168798A, “Non-irritating composition for treating acne and other skin conditions” (Bristol-Myers Squibb Company, priority 1997, dated 2001)
# System: isolated bovine corneas
# Experimental: The bovine corneal opacity and permeability assay (BCOP) was used to assess the ocular irritancy of test formulations to isolated bovine corneas. Bovine corneas, obtained as a by-product from freshly slaughtered animals, were mounted in special holders and exposed to the test formulations. An in vitro score was determined for each test material based on the induction of opacity and permeability to fluorescein in the isolated bovine corneas. In these experiments, the potential ocular irritancy of the composition formulated in accordance with the invention and exemplified in Table 1 was compared with that of the commercially-available comparative product. Ocular irritancy was measured by changes in opacity and permeability to fluorescein in isolated bovine corneas. Five corneas were treated with each test material. Based on changes in corneal opacity and permeability relative to control corneas, an in vitro score was determined. […]
# After a minimum of one hour of incubation, the corneal holders with the corneas in place were removed from the incubator and the medium was removed from both compartments and replaced with fresh medium. The opacity was determined for each cornea using a Spectro Design OP-KIT opacitometer. Three corneas whose opacity readings were close to the median opacity for all of the corneas were selected as the negative control corneas. […]
structure (smiles),measurement,value
"CCO [ethanol (95%), ethanol]",Irritation potential rating from in vitro score,moderate to severe
